{
  "source": "patent US9802884B2",
  "about": "“Mixtures of MGDA enantiomers, and process for making such mixtures” (BASF SE, priority 2013, dated 2017)",
  "key": {"[1]": {"details": "ambient temperature", "experimental": "The following tolerance tests were performed: 25 g of a 40% by weight aqueous solution of the respective inventive mixture (or of racemic MGDA) were mixed under one hour of stirring with the amount of solid NaOH beads according to table 5. The mixture so obtained was stored at ambient temperature over the period of up to 96 hours. Then, the appearance was characterized by visual inspection."}, "[2]": {"details": "minimum temperature for forming a kinetically stable 50% by weight solution, cooled 30° C./h to precipitation, reheated 1° C./h until clear, higher Tsol = lower solubility", "experimental": "In each case, the solubility was calculated to refer to pure MGDA, without hydrate water. The solubility of inventive mixtures and of comparison experiments was determined with an apparatus that allowed heating and cooling down liquid solutions. […] Then, the slurry of crystals of MGDA so obtained was again heated at a speed of 1° C./h until a clear solution was obtained. The slurry/solution was checked for solid particles by visible light scattering detection. […] A higher temperature Tsol correlates with a lower solubility at ambient temperature."}, "[3]": {"details": "aqueous solution, room temperature; cited from earlier work"}, "[4]": {"details": "NaOH added 0 g to 25 g of 40% by weight aqueous solution"}, "[5]": {"details": "NaOH added 0.5 g to 25 g of 40% by weight aqueous solution"}, "[6]": {"details": "NaOH added 1.0 g to 25 g of 40% by weight aqueous solution"}, "[7]": {"details": "NaOH added 1.5 g to 25 g of 40% by weight aqueous solution, * = after 48 hours"}, "[8]": {"details": "NaOH added 2.0 g to 25 g of 40% by weight aqueous solution, * = after 48 hours"}, "[9]": {"details": "NaOH added 2.5 g to 25 g of 40% by weight aqueous solution, ** = immediately after addition of NaOH"}},
  "note": "Read-outs that look alike come from different tables or passages of the source.",
  "data": [
    {"smiles": "CC(C(=O)[O-])N(CC(=O)[O-])CC(=O)[O-].[Na+].[Na+].[Na+]", "note": "(racemic) [Racemic MGDA, methyl glycine diacetic acid (MGDA), reference compound]", "values": [
      {"measurement": "Appearance of test solutions after 96 h of storage", "setting": "[1]; [4]", "result": "clear liquid"},
      {"measurement": "Appearance of test solutions after 96 h of storage", "setting": "[1]; [5]", "result": "clear liquid"},
      {"measurement": "Appearance of test solutions after 96 h of storage", "setting": "[1]; [6]", "result": "clear liquid"},
      {"measurement": "Appearance of test solutions after 96 h of storage", "setting": "[1]; [7]", "result": "turbid* liquid"},
      {"measurement": "Appearance of test solutions after 96 h of storage", "setting": "[1]; [8]", "result": "turbid* liquid"},
      {"measurement": "Appearance of test solutions after 96 h of storage", "setting": "[1]; [9]", "result": "turbid, precipitate**"},
      {"measurement": "Tsol", "setting": "[2]; listed as zero", "result": 103.8, "unit": "°C"},
      {"measurement": "concentration of solution that can be made and stored", "setting": "[3]", "result": "about 40 % by weight"}
    ]},
    {"smiles": "CC(C(=O)[O-])N(CC(=O)[O-])CC(=O)[O-].[Na+].[Na+].[Na+]", "note": "(stereo not shown) [MGDA: 50% ee, methyl glycine diacetic acid (MGDA)]", "values": [
      {"measurement": "Appearance of test solutions after 96 h of storage", "setting": "[1]; [4]", "result": "clear liquid"},
      {"measurement": "Appearance of test solutions after 96 h of storage", "setting": "[1]; [5]", "result": "clear liquid"},
      {"measurement": "Appearance of test solutions after 96 h of storage", "setting": "[1]; [6]", "result": "clear liquid"},
      {"measurement": "Appearance of test solutions after 96 h of storage", "setting": "[1]; [7]", "result": "clear liquid"},
      {"measurement": "Appearance of test solutions after 96 h of storage", "setting": "[1]; [8]", "result": "clear liquid"},
      {"measurement": "Appearance of test solutions after 96 h of storage", "setting": "[1]; [9]", "result": "clear liquid"},
      {"measurement": "Tsol", "setting": "[2]; listed as 50.0", "result": 68.1, "unit": "°C"}
    ]},
    {"smiles": "CC(C(=O)[O-])N(CC(=O)[O-])CC(=O)[O-].[Na+].[Na+].[Na+]", "note": "(stereo not shown) [ee value 10.1, methyl glycine diacetic acid (MGDA)]", "values": [
      {"measurement": "Tsol", "setting": "[2]; listed as 10.1", "result": 74.5, "unit": "°C"}
    ]},
    {"smiles": "CC(C(=O)[O-])N(CC(=O)[O-])CC(=O)[O-].[Na+].[Na+].[Na+]", "note": "(stereo not shown) [ee value 20.0, methyl glycine diacetic acid (MGDA)]", "values": [
      {"measurement": "Tsol", "setting": "[2]; listed as 20.0", "result": 74.0, "unit": "°C"}
    ]},
    {"smiles": "CC(C(=O)[O-])N(CC(=O)[O-])CC(=O)[O-].[Na+].[Na+].[Na+]", "note": "(stereo not shown) [ee value 70.0, methyl glycine diacetic acid (MGDA)]", "values": [
      {"measurement": "Tsol", "setting": "[2]; listed as 70.0", "result": 59.5, "unit": "°C"}
    ]},
    {"smiles": "CC(C(=O)[O-])N(CC(=O)[O-])CC(=O)[O-].[Na+].[Na+].[Na+]", "note": "(stereo not shown) [ee value 97.7, methyl glycine diacetic acid (MGDA), reference compound]", "values": [
      {"measurement": "Tsol", "setting": "[2]; listed as 97.7", "result": 37.0, "unit": "°C"}
    ]}
  ]
}
